According to paper PMC10175918 (Communications Biology, 2023):
Where two headings read alike, the source gives them in different places. One block for each compound: values may come before it.

Legend:
Assay in all cases: cell-based
Set-up in all cases: species or system HEK293A; AP-TGFα shedding assay, transfected GPCR plus chimeric Gα mixture, AP release as % of TPA response
Conditions in all cases: HEK293-A
[1] = molecular target: T1, G protein-coupled receptor 18 (Homo sapiens, UniProt Q14330)
T1 construct: gene GPR18
T1 sequence (Q14330 1-331): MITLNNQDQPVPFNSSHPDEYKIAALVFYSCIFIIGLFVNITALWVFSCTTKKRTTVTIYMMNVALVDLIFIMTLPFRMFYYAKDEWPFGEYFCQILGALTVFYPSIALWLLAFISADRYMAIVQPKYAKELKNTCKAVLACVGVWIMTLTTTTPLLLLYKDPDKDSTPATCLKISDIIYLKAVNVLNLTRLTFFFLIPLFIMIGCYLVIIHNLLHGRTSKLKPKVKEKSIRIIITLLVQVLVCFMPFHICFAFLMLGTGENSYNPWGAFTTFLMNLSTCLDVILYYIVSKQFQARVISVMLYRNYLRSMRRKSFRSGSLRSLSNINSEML

[2] = molecular target: T2, relaxin/insulin-like family peptide receptor 1 (Homo sapiens, UniProt Q9HBX9)
T2 construct: gene RXFP1
T2 sequence (Q9HBX9 1-757): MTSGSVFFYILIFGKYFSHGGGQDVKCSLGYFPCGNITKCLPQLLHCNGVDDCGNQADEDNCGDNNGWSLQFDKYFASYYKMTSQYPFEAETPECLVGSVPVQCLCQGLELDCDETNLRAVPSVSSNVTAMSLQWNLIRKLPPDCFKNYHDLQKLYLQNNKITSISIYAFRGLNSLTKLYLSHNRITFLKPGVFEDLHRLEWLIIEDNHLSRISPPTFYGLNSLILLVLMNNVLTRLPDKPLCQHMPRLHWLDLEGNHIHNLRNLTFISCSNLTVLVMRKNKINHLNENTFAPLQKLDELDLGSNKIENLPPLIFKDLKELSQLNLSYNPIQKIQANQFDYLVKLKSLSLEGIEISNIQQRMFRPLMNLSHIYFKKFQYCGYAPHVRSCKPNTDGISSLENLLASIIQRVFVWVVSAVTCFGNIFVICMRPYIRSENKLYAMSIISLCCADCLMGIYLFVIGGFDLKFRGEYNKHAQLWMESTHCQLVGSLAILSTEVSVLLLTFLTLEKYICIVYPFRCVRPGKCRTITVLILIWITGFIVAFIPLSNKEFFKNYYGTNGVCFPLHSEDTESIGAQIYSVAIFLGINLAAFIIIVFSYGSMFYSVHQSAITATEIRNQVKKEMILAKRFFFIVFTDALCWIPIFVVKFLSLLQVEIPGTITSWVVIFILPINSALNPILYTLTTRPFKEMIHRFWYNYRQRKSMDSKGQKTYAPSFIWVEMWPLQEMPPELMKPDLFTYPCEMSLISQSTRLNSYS

[3] = molecular target: T3, 5-hydroxytryptamine receptor 1E (Homo sapiens, UniProt P28566)
T3 construct: gene HTR1E
T3 sequence (P28566 whole entry): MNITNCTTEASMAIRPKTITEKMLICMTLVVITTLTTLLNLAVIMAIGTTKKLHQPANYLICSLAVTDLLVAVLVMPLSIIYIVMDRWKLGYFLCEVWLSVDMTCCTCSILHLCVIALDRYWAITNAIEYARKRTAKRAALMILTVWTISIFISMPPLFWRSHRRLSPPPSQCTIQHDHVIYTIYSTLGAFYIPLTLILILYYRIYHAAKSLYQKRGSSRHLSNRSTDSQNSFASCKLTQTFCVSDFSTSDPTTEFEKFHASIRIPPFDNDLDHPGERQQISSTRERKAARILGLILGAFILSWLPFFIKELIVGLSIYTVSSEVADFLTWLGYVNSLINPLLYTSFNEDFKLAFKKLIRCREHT

secretin receptor = molecular target: T4, secretin receptor (Homo sapiens, UniProt P47872)
T4 construct: gene SCTR
T4 sequence (P47872 whole entry): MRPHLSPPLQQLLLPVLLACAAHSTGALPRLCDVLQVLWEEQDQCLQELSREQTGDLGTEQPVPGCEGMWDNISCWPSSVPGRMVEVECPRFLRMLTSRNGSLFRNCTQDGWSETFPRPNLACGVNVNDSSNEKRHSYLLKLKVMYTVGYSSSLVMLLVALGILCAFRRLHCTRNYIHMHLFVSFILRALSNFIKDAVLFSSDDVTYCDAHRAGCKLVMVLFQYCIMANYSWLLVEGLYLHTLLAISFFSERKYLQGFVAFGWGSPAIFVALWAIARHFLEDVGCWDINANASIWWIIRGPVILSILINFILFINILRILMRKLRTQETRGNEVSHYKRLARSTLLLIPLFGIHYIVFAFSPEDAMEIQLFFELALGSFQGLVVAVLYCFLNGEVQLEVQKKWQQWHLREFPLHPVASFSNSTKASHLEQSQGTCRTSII

[4] = molecular target: T5, G protein-coupled receptor 65 (Homo sapiens, UniProt Q8IYL9)
T5 construct: gene GPR65
T5 sequence (Q8IYL9 whole entry): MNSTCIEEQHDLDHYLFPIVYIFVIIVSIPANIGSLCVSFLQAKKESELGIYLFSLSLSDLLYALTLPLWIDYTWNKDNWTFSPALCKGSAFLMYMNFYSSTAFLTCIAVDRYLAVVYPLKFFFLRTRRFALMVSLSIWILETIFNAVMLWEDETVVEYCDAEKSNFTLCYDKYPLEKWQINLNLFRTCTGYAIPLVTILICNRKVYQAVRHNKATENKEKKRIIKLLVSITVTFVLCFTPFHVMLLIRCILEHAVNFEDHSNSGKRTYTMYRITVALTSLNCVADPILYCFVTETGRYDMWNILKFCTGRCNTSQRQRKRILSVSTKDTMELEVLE

[5] = molecular target: T6, relaxin/insulin-like family peptide receptor 3 (Homo sapiens, UniProt Q9NSD7)
T6 construct: gene RXFP3
T6 sequence (Q9NSD7 1-469): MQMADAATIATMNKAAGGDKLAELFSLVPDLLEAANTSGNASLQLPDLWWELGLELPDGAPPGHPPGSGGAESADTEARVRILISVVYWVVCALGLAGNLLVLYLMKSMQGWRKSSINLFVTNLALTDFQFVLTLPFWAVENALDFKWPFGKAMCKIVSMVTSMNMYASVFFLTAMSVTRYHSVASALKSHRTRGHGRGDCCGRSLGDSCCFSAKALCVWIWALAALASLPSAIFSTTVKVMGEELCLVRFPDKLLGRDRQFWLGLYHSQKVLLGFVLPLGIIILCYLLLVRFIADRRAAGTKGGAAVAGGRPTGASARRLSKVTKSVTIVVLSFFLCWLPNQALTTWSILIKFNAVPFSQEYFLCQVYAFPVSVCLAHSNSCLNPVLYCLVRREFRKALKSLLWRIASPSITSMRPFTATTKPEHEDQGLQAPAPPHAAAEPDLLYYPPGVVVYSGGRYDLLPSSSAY

GPR132 = molecular target: T7, GPR132 (Homo sapiens, UniProt Q9UNW8)
T7 sequence (Q9UNW8 1-380): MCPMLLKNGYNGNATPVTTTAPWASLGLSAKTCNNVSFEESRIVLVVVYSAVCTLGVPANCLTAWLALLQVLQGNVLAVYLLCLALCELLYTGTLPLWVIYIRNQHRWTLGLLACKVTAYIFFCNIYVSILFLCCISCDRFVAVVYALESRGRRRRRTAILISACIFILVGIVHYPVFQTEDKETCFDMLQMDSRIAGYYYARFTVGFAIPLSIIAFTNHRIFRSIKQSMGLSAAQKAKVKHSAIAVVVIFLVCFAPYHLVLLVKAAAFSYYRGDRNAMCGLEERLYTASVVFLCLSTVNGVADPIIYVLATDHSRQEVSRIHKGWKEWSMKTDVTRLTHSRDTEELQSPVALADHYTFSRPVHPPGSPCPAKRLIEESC

[6] = molecular target: T8, neurotensin receptor type 2 (Homo sapiens, UniProt O95665)
T8 construct: gene NTSR2
T8 sequence (O95665 whole entry): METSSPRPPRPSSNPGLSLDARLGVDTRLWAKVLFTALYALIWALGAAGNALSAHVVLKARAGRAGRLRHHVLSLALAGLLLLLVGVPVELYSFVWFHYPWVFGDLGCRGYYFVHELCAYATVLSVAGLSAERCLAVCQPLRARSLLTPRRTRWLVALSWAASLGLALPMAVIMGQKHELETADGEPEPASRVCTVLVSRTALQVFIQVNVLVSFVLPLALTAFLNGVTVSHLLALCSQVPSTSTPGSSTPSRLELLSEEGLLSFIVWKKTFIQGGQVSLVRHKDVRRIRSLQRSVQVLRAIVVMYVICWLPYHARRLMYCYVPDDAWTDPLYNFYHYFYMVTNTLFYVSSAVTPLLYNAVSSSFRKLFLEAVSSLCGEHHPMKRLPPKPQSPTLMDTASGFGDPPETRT

[7] = read-out: % GPCR activation of 10μM GS441524 compared to TPA
[8] = read-out: % GPCR activation of 100μM Favipiravir compared to TPA
[9] = read-out: % GPCR activation of 10µM Molnupiravir compared to TPA
[10] = read-out: % GPCR activation of 10µM Remdesivir compared to TPA
[11] = read-out: % GPCR activation of 10μM Sofosbuvir compared to TPA

activity at 100 µM [1, 8]: -1%
activity at 100 µM [2, 8]: 0.274%
activity at 100 µM [3, 8]: 0.555%
activity at 100 µM (secretin receptor; [8]): -0.513%
activity at 100 µM [4, 8]: 1.28%
activity at 100 µM [5, 8]: 1.4%
activity at 100 µM (GPR132; [8]): 7.4%
activity at 100 µM [6, 8]: -3.41%
Compound: NC(=O)c1nc(F)cnc1O [favipiravir, 6-fluoro-3-hydroxy-2-pyrazinecarboxamide]

activity at 10 µM [1, 9]: -5.39%
activity at 10 µM [2, 9]: -0.957%
activity at 10 µM [3, 9]: -0.994%
activity at 10 µM (secretin receptor; [9]): -0.0837%
activity at 10 µM [4, 9]: -8.38%
activity at 10 µM [5, 9]: -2.92%
activity at 10 µM (GPR132; [9]): -1.8%
activity at 10 µM [6, 9]: 0.128%
Compound: CC(C)C(=O)OC[C@H]1O[C@@H](n2ccc(NO)nc2=O)[C@H](O)[C@@H]1O [molnupiravir]

The next lines start with the compound.

Compound: N#C[C@@]1(c2ccc3c(N)ncnn23)O[C@H](CO)[C@@H](O)[C@H]1O [GS441524]
activity at 10 µM [1, 7]: 2.08%
activity at 10 µM [2, 7]: -1.09%
activity at 10 µM [3, 7]: -1.38%
activity at 10 µM (secretin receptor; [7]): 0.894%
activity at 10 µM [4, 7]: -3.08%
activity at 10 µM [5, 7]: 1.98%
activity at 10 µM (GPR132; [7]): -8.13%
activity at 10 µM [6, 7]: 1.01%

Compound: CCC(CC)COC(=O)[C@H](C)N[P@](=O)(OC[C@H]1O[C@@](C#N)(c2ccc3c(N)ncnn23)[C@H](O)[C@@H]1O)Oc1ccccc1 [remdesivir]
activity at 10 µM [1, 10]: 1.12%
activity at 10 µM [2, 10]: -0.564%
activity at 10 µM [3, 10]: -0.0718%
activity at 10 µM (secretin receptor; [10]): -0.951%
activity at 10 µM [4, 10]: -1.39%
activity at 10 µM [5, 10]: 3.55%
activity at 10 µM (GPR132; [10]): 11%
activity at 10 µM [6, 10]: -1.86%

Compound: CC(C)OC(=O)[C@H](C)N[P@](=O)(OC[C@H]1O[C@@H](n2ccc(=O)[nH]c2=O)[C@](C)(F)[C@@H]1O)Oc1ccccc1 [sofosbuvir]
activity at 10 µM [1, 11]: -3.04%
activity at 10 µM [2, 11]: 0.456%
activity at 10 µM [3, 11]: -1.21%
activity at 10 µM (secretin receptor; [11]): 0.153%
activity at 10 µM [4, 11]: -10.5%
activity at 10 µM [5, 11]: -2.19%
activity at 10 µM (GPR132; [11]): -1.37%
activity at 10 µM [6, 11]: 0.255%
